Test results: the NIST ThermoML archive (doi:10.1016/j.fluid.2008.08.007)
Numbers after ± are expanded uncertainties.

Test: xn = mol fraction of the nth substance listed
Details: x1 = 0.75; for surface tension liquid-gas: Ring tensiometer; for mass density: 101 kPa, Liquid, westphal balance

[Cl-].[Cl-].[Zn+2] [zinc chloride] + CCCCn1cc[n+](C)c1.[Cl-]
Details	mass density [kg/m3]	surface tension liquid-gas [mN/m]
318.2 K	1779.1 ± 0.5	78.3 ± 0.99
323.2 K	1773.6 ± 0.5	78 ± 0.99
328.2 K	1766.9 ± 0.5	77.7 ± 0.99
333.2 K	1758 ± 0.5	77.2 ± 0.98
338.2 K	1749.2 ± 0.5	76.8 ± 0.98
343.2 K	1742.1 ± 0.5	76.4 ± 0.97
